# pEC50: −log10 of the molar value.
# What was measured:
# [1] = system: constrictive mouse model of trigeminal neuralgia; assay: Mechanical allodynia (Von Frey filament) after constriction of the maxillary nerve; type: in vivo; conditions: WT mice, vs vehicle
# Procedure: (§1) Constriction of the Maxillary Nerve Constriction of the maxillary division of trigeminal nerve was performed as previously described (See Benedetti, A., et al., Biochimica Et Biophysica Acta Bba—Lipids Lipid Metabolism 620, 281-296 (1980) and Vos, B., et al J Neurosci 14, 2708-2723 (1994)). The procedure was performed under direct visualization and control with a surgical microscope. Mice were first anesthetized with ketamine (100 mg/kg, i.p.) and xylazine (12.5 mg/kg, i.p.) and monitored by pinching the skin between the toes with forceps and monitoring for withdrawal. Mice were restrained with adhesive tape to a sterilized polystyrene board. Upon sufficient anesthesia, the scalp was shaved and an anterior to posterior skin incision was made at the midline to expose the nasal and maxillary bones. The maxillary nerve was exposed and carefully dissected free from the surrounding connective tissue. The distal end of the maxillary nerve was then loosely constricted using 8-0 silk sutures as a ligature. The sutures were tied using a slip knot followed by a normal knot, after which any remaining suture was cut free. The incision was then closed with a 4-0 silk suture. In the sham procedure, the left maxillary nerve was exposed but not constricted. Mice were monitored and rehydrated until fully recovered from anesthesia.
# (§2) Pharmacologic Treatments Mice were dosed with either sulforaphane (10 mg/kg, i.p.), exemestane (10 mg/kg, i.p.), letrozole (10 mg/kg, i.p.), (+)-JQ-1 (40 mg/kg, i.p.), (−)-JQ-1 (40 mg/kg, i.p.), or ascorbate (100 mg/kg, i.p.) as indicated below. Mice were first dosed daily for two days before surgery and again daily just after behavior testing. For local exemestane treatment, exemestane (5 μL, 25 μg total) was applied directly to the maxillary nerve. Mice received a single dose during surgery. Mice were dosed with AM-0902 (30 mg/kg, p.o.). Mice were treated with AM-0902 were dosed 30 min prior to behavior testing. Mice were dosed with tamoxifen (75 mg/kg, i.p.). Mice were dosed once every 24 hrs over 5 consecutive days. Behavioral and molecular tests were only performed 7 or more days after the final tamoxifen injection.
# Mechanical Allodynia Mechanical allodynia was assessed in C57BL/6J, TRPA1^+/+, TRPA1^−/−, Keap1(f/f), and Keap1(f/f/CMV-CreER mice using a Von Frey filament as previously outlined (See Benedetti, A., et al., Biochimica Et Biophysica Acta Bba—Lipids Lipid Metabolism 620, 281-296 (1980) and Vos, B., et al J Neurosci 14, 2708-2723 (1994)). Animals were placed individually in transparent plastic boxes and allowed to acclimate to the environment for at least 30 min before testing. After habituation, a 0.04 g force Von Frey filament was used to stimulate the territory innervated by the maxillary nerve, including the vibrissal skin pad. Each mouse's response to the filament was scored from 0-4 on the scale below. Each mouse was scored ten times per day. Changes in mechanical allodynia were considered relative to sham- or vehicle-treated animal controls. Behavior was assessed concomitantly or in a blocked manner with consideration for both genotype and treatment. • 0—no response • 1—non-defensive response to the stimulus (e.g., mouse non-defensively explores filament) • 2—withdrawal response (e.g., mouse turns head away from filament) • 3—escape/attack response (e.g., mouse moves body away from filament and assumes crouching position against the box wall; actively attacks filament by biting and/or grabbing) • 4—asymmetric face grooming (e.g., mouse wipes stimulated facial area in uninterrupted series of at least three face-wash strokes)
# [2] = system: constrictive mouse model of trigeminal neuralgia; assay: Cold allodynia (ice-cold acetone) after constriction of the maxillary nerve; type: in vivo; conditions: WT mice, vs vehicle
# Procedure: as §1, §2
# Cold Allodynia Cold allodynia was assessed in C57BL/6J, TRPA1^+/+, TRPA1^−/−, Keap1(f/f), and Keap1(f/f)/CMV-CreER mice using ice-cold acetone as previously outlined (See Yoon, C., et al., Pain 59, 369-376 (1994)). Animals were placed individually in transparent plastic boxes and allowed to acclimatize to the environment for at least 30 min before testing. After habituation, 20 μl of cold acetone was applied to the ligated vibrissal pad skin surface. Cold allodynia was measured as the average time spent wiping the region in a 60 s period, with a maximum of 5 seconds between bouts of wiping. Allodynia was measured three times with 10 min between intervals. Changes in cold allodynia were considered relative to sham- or vehicle-treated animal controls. Behavior was assessed concomitantly or in a blocked manner with consideration for both genotype and treatment.
# [3] = system: constrictive mouse model of trigeminal neuralgia; assay: Mechanical allodynia (Von Frey filament) after constriction of the maxillary nerve; type: in vivo; conditions: NRF2−/− mice; AM-0902 30 mg/kg, p.o., 30 min prior to behavior testing
# [4] = system: constrictive mouse model of trigeminal neuralgia; assay: Cold allodynia (ice-cold acetone) after constriction of the maxillary nerve; type: in vivo; conditions: NRF2−/− mice; AM-0902 30 mg/kg, p.o., 30 min prior to behavior testing
# [5] = target: T1, mutant TRPA1 (Cys621, Cys641, Cys665, Lys721) (Homo sapiens, UniProt O75762, C621S/C641S/C665S); assay: Calcium imaging of HEK293 cells transiently expressing mutant TRPA1; type: cell-based; conditions: 100 μM iodoacetamide, 1 mM H2O2 or 100 μM 4-HNE
# T1 construct: expressed in transfected cells; host or cells: HEK293
# T1 sequence (O75762 whole entry C621S/C641S/C665S): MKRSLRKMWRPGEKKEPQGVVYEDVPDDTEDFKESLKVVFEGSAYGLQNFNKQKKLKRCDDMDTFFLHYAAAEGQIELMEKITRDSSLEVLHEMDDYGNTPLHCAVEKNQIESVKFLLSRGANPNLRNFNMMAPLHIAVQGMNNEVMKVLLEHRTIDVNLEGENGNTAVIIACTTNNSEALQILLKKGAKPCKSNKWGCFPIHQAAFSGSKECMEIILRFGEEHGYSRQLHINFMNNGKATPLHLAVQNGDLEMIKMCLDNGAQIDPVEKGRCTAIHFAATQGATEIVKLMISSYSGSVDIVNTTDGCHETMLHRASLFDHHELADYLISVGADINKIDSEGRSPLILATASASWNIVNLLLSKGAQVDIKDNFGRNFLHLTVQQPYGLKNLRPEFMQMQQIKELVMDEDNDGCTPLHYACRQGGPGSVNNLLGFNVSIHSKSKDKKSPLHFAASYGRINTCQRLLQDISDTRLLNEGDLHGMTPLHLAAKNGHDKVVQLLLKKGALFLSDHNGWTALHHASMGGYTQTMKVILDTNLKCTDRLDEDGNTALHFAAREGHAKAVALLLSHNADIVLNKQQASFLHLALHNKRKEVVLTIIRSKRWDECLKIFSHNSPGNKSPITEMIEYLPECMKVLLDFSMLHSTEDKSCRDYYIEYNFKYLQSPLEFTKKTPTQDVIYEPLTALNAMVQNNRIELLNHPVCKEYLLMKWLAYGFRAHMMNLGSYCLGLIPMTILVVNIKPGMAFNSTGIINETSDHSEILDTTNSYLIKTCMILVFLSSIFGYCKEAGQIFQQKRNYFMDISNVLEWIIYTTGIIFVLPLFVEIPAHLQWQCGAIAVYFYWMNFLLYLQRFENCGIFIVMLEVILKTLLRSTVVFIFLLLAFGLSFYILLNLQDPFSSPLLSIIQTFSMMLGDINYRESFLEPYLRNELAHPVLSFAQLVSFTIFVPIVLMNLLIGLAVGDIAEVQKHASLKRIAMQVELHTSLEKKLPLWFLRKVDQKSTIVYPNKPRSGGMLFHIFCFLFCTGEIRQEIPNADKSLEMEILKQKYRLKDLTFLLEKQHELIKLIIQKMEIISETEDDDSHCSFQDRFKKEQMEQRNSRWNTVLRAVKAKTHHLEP
# Procedure: (§3) Calcium Imaging and Analysis Calcium imaging and analysis was performed as previously described (See Meixiong, J. et al. Elife 8, (2019)). Briefly, cells were imaged in calcium imaging buffer (CIB; 10 mM HEPES, 1.2 mM NaHCO3, 130 mM NaCl, 3 mM KCl, 2.5 mM CaCl2, 0.6 mM MgCl2, 20 mM glucose, and 20 mM sucrose at pH 7.4 and 290-300 mOsm). To monitor changes in intracellular [Ca^2+]([Ca^2+]i), cells were loaded with either 1 μM Fura 2-AM (HEK293 cells) or 1 μM Fluo 4-AM (trigeminal neurons) for 30 min in the dark at 37° C. in CIB just prior to imaging. With Fura 2-AM, emission at 510 nm was monitored following excitation at both 340 nm and 380 nm. With Fluo 4-AM, emission at 520 nm was monitored following excitation at 488 nm. Cells were identified as positively responding if [Ca^2+]i rose by 15% compared to baseline. Damaged, detached, high-baseline, and motion-activated cells were excluded from analysis.
# (§4) HEK293 cells were plated on poly-D-lysine-coated coverslips and transiently transfected with the vector backbone or constructs encoding WT or mutant TRPA1. Unless otherwise noted, cells were imaged for 30 s to establish a baseline before compounds were added. Vehicle was first applied for 30 s, after which 100 μM iodoacetamide, 1 mM H2O2, or 100 μM 4-HNE was applied. CSF from cases and controls was diluted into calcium imaging buffer 1:50 prior to each trial. 50 μM of the non-selective TRP channel inhibitor ruthenium red was applied at the end of every imaging trial.
# (§5) ROS directly activated TRPA1 by covalently bonding or modifying a network of cysteine and lysine residues within the channel. Extensive work by several groups has pinpointed a collection of key residues in TRPA1, including Cys421, Cys621, Cys641, Cys665, and Lys721. To test which residues among these sense H2O2 and 4-HNE, each was mutated individually and in various combinations (FIGS. 7A and 7B). Triply mutating cysteines Cys621, Cys641, Cys665 to serine rendered TRPA1 insensitive to both iodoacetamide and H2O2 (FIGS. 2D-2E). […] These four residues position TRPA1 as both a key sensor and transducer of oxidative stress.
# TRPA1 = target: T2, TRPA1 (Homo sapiens, UniProt O75762); assay: Calcium imaging of HEK293 cells transiently expressing WT TRPA1; type: cell-based; conditions: for calcium response of cells transfected with the vector backbone alone: 100 μM iodoacetamide, control vector; for calcium response of cells transfected with the vector backbone alone / calcium response of cells expressing WT TRPA1: 1 mM H2O2 or 100 μM 4-HNE; for pEC50: concentration-Ca2+ response, HEK-293 cells transfected with WT TRPA1
# T2 construct: expressed in transfected cells; host or cells: HEK293
# T2 sequence (O75762 whole entry): as the sequence (O75762 whole entry C621S/C641S/C665S) above, with S621C, S641C, S665C counted along it
# Procedure: as §3, §4
# [6] = system: mutant TRPA1 (Cys621, Cys641, Cys665, Lys721); assay: Calcium imaging of HEK293 cells transiently expressing mutant TRPA1; type: cell-based; conditions: 100 μM 4-HNE
# Procedure: as §3, §4, §5
# NRF2 = assay: NRF2/ARE Luciferase Reporter Assay (HEK293 stable cell line); type: cell-based, human; conditions: NRF2-dependent luciferase activity, cells treated for 6 hours; read-out: EC50 for stimulating NRF2
# Procedure: NRF2/ARE Luciferase Reporter Assay NRF2 activity was monitored with a reporter cell line in which changes in NRF2 activity are coupled to the expression of firefly luciferase (NRF2/ARE Luciferase Reporter HEK293 Stable Cell Line). Luciferase activity was quantified with the Luciferase Assay System as per the manufacturer's instructions. Briefly, cells were plated at 125,000 cells/well in a 24-well plate. The following day, cells were treated with either vehicle or varying doses of sulforaphane, exemestane, or JQ-1 for 6 hours. Cells were then lysed in passive lysis buffer (Promega E1941) supplemented with protease inhibitors (Sigma). Lysates were then cleared at 16,000 g for 15 minutes at 4° C. 15 μL of each lysate was mixed with 5 μL of luciferase assay substrate (Promega). Total light was measured using a luminometer with a 10 second integration time with a delay of 2 seconds. Luciferase measurements were normalized to total protein and reported as normalized to the vehicle condition.
# [7] = i.p. daily for two days before surgery and daily after behavior testing, sulforaphane, exemestane, letrozole 10 mg/kg, JQ-1 40 mg/kg, ascorbate 100 mg/kg
# [8] = AM-0902 30 mg/kg, p.o., 30 min prior to behavior testing
Structure (SMILES),"sensitivity of triple mutant TRPA1 (Cys621, Cys641, Cys665 to serine) [5]",calcium response of cells transfected with the vector backbone alone (TRPA1),calcium response of cells expressing WT TRPA1 (TRPA1),pEC50 (TRPA1),pEC50 (NRF2),further results
N#Cc1ccc(C(c2ccc(C#N)cc2)n2cncn2)cc1 [letrozole],–,–,–,–,–,"mechanical allodynia (sensitivity to crude touch) [1, 7]: neither letrozole nor (−)-JQ-1 did; cold allodynia (ice-cold acetone) [2, 7]: neither letrozole nor (−)-JQ-1 did"
"Cn1cnc2ncn(Cc3nc(CCc4ccc(Cl)cc4)no3)c(=O)c21 [AM-0902, 1-({3-(2-(4-chlorophenyl)ethyl]-1,2,4-oxadiazol-5-yl}methyl)-7-methylpurin-6-one]",–,–,–,–,–,"mechanical allodynia [3]: lowered; mechanical allodynia [1, 8]: reduced; cold allodynia [4]: lowered; cold allodynia [2, 8]: reduced"
NC(=O)CI [iodoacetamide],insensitive,"Neither iodoacetamide, H2O2, nor 4-HNE elicited a calcium response",–,–,–,–
"CCCCCC(O)/C=C/C=O (stereo not shown) [4-HNE, 4-hydroxynonenal]",still activated,"Neither iodoacetamide, H2O2, nor 4-HNE elicited a calcium response",activated cells expressing TRPA1,4.32,4.92,sensitivity of triple cysteine mutant TRPA1 after also mutating Lys721 [6]: no longer sensitive
OO [H2O2],insensitive,"Neither iodoacetamide, H2O2, nor 4-HNE elicited a calcium response",activated cells expressing TRPA1,3.88,4.85,–
